# Measured values published in patent US6756401B2, “Compositions and methods for treating osteoporosis and lowering cholesterol” (Pfizer Inc., priority 2000, dated 2004).
# What was measured:
# OVX rats [1] = assay: Ovariectomized rat model: serum osteocalcin by radioimmunoassay; format: in vivo; settings: daily for 4 weeks
# From the text: (§1) In women, estrogen deficiency during the menopause results in increased bone turnover leading to bone loss. Ovariectomy in rats produces estrogen deficiency and increased bone turnover leading to trabecular bone loss similar to that observed in post-menopausal women (Kalu, D. N., Bone and Mineral 1991 ;15:175; Frost, H. M., Jee W. S. S., Bone and Mineral 1992;18:227; Wronski, T. J., Yen, C-F, Cells Materials 1991;(suppl. 1):69). The OVX rat is thus an appropriate model to evaluate compounds for the prevention and treatment of post-menopausal osteoporosis. The ability of PPTN to inhibit estrogen deficiency bone loss was assessed in 5-month-old OVX rats, since ovariectomy causes significant bone loss in the lumbar vertebrae, proximal tibia, and distal femoral metaphyses (Ke, H. Z., et al., Endocrin 1995;136:2435; Chen, H. K., et al., J Bone Miner Res 1995;10:1256).
# Five-month-old OVX female rats were treated with PPTN at oral doses of 0.733, 7.33, 73.3, and 733 μg/kg/day, or 17α-ethynyl estradiol (EE) at 30 μg/kg/day (10 rats per subgroup) daily for 4 weeks. […] The effects of PPTN on the following end points were determined: (a) serum osteocalcin, a biochemical marker of bone turnover, (b) bone mineral density of lumbar vertebrae and distal femoral metaphyses, (c) bone histomorphometry of fifth lumbar vertebral body and proximal tibial metaphyses. […]
# OVX rats [2] = assay: Ovariectomized rat model: lumbar vertebrae BMD by dual-energy X-ray absorptiometry; format: in vivo; settings: 4 weeks
# From the text: as §1
# (§2) Five-month-old OVX female rats were treated with PPTN at oral doses of 0.733, 7.33, 73.3, and 733 μg/kg/day, or 17α-ethynyl estradiol (EE) at 30 μg/kg/day (10 rats per subgroup) daily for 4 weeks. The oral treatment began 1 day after surgery. Groups of vehicle-treated sham rats (n=10) and vehicle-treated OVX rats (n=10) served as controls. Calcein at 10 mg/kg was injected s.c. to all rats 12 and 2 days before necropsy as a fluorochrome bone marker to measure bone dynamic histomorphometric parameters. The effects of PPTN on the following end points were determined: (a) serum osteocalcin, a biochemical marker of bone turnover, (b) bone mineral density of lumbar vertebrae and distal femoral metaphyses, (c) bone histomorphometry of fifth lumbar vertebral body and proximal tibial metaphyses.
# The first to the sixth lumbar vertebrae from each rat were removed during necropsy. These were then scanned ex vivo using dual-energy X-ray absorptiometry. The scan images were analyzed, and bone area, bone mineral content (BMC), and bone mineral density (BMD) of whole lumbar vertebrae (WLV), and LV1 through LV6 were determined. […] The changes in BMC were similar to those observed in BMD. […]
# OVX rats [3] = assay: Ovariectomized rat model: histomorphometry of proximal tibial metaphyses; format: in vivo; settings: 4 weeks
# From the text: as §1, §2
# In order to determine the effect of PPTN on long bone metaphyses, histomorphometric analyses were performed on the proximal tibiae.
# OVX rats [4] = assay: Ovariectomized rat model: bone histomorphometry of fifth lumbar vertebral body; format: in vivo; settings: 4 weeks
# From the text: as §1, §2
# In order to understand the cellular mechanism of bone-protective effects of PPTN at the tissue level, bone histomorphometric methods were used to determine the effects of PPTN on cancellous bone of the fifth lumbar vertebral body in OVX rats. Ovariectomy caused significant decreases in trabecular bone volume (trabecular bone area divided by marrow space area, expressed as percent) and trabecular number, and a significant increase in trabecular separation of the fifth lumbar vertebral body.
# OVX rats [5] = assay: Ovariectomized rat model: femur BMD by dual-energy X-ray absorptiometry; format: in vivo; settings: 4 weeks
# From the text: as §1, §2
# Using dual-energy X-ray absorptiometry, the right femur of each rat was scanned ex vivo. Bone mineral density (BMD) of the distal femoral metaphyses (second 0.5 cm from the distal end of femur) and the proximal femur (the first 0.5 cm from the proximal end of femur, which contains the femoral head, neck, and greater trochanter) was determined.
# MDA-MB-231 cells = assay: Inhibition of in vitro human breast tumor cell growth, ER-negative cells; format: cell-based; settings: MDA-MB-231 (ER-negative), 6 days incubation, direct cell counts
# Description: The in vitro antiproliferative effects of (−)-cis-6-phenyl-5-[4-(2-pyrrolidin-1-yl-ethoxy)-phenyl]-5,6,7,8-tetrahydro-naphthalene-2-ol (PPTN) were tested using two types of human breast cancer cell lines: first, MCF-7 cells, which contain ER as well as progesterone receptors (PgR), and second, MDA-MB-231 cells, which lack ER and PgR, and enable the determination of an effect that is independent of the ER mechanism. The effect of PPTN on the growth of these different cell lines was determined by incubation of the cells with various compound concentrations for 6 days.
# The antiproliferative effects were then determined by direct cell counts. PPTN inhibited the growth of the ER-positive cell line MCF-7.
# [6] = PPTN at doses ≧7.33 μg/kg/day oral
# [7] = PPTN at 7.33, 73.3, or 733 μg/kg/day oral
structure (smiles),measurement,setting,value
"C#C[C@]1(O)CC[C@H]2[C@@H]3CCc4cc(O)ccc4[C@H]3CC[C@@]21C [EE, 17α-ethynyl estradiol, reference compound]",increase in serum osteocalcin concentration after ovariectomy,OVX rats [1]; EE 30 μg/kg/day oral,completely prevented
same,decrease in lumbar vertebral BMD after ovariectomy,OVX rats [2]; EE 30 μg/kg/day oral,completely prevented the decrease
same,bone turnover rate in proximal tibial trabecular bone,OVX rats [3]; EE 30 μg/kg/day oral,did not differ from sham controls
same,osteoclast number per millimeter of bone surface compared with both sham and OVX controls,OVX rats [3]; EE 30 μg/kg/day oral,significantly decreased
same,percent osteoclast surface compared with both sham and OVX controls,OVX rats [3]; EE 30 μg/kg/day oral,significantly decreased
same,"bone turnover rate, lumbar vertebral body",OVX rats [4]; EE 30 μg/kg/day oral,did not differ from sham controls
same,"ovariectomy-induced changes in trabecular bone volume, trabecular number and trabecular separation of fifth lumbar vertebral body",OVX rats [4]; EE 30 μg/kg/day oral,completely prevented
same,ovariectomy-induced increase in bone formation rate (BFR),OVX rats [4]; EE 30 μg/kg/day oral,inhibited this increase
same,percent eroded surface (index of osteoclastic bone resorption) compared with sham controls,OVX rats [4]; EE 30 μg/kg/day oral,significantly decreased
same,trabecular number of fifth lumbar vertebral body compared with sham controls,OVX rats [4]; EE 30 μg/kg/day oral,significantly increased
same,decrease in BMD of distal femoral metaphyses after ovariectomy,OVX rats [5]; EE 30 μg/kg/day oral,prevented the decrease
same,proximal femoral BMD,OVX rats [5]; EE 30 μg/kg/day oral,had no effect
"Oc1ccc2c(c1)CC[C@H](c1ccccc1)[C@@H]2c1ccc(OCCN2CCCC2)cc1 [PPTN, (−)-cis-6-phenyl-5-[4-(2-pyrrolidin-1-yl-ethoxy)-phenyl]-5,6,7,8-tetrahydro-naphthalene-2-ol]",increase in serum osteocalcin concentration after ovariectomy,OVX rats [1]; [6],completely prevented
same,lumbar vertebral BMD compared with both sham and OVX controls,OVX rats [2]; PPTN 73.3 μg/kg/day oral,increased significantly
same,decrease in lumbar vertebral BMD after ovariectomy,OVX rats [2]; PPTN at all dose levels (0.733 to 733 μg/kg/day oral),completely prevented the decrease
same,percent osteoclast surface compared with OVX controls,OVX rats [3]; PPTN at 0.733 μg/kg/day oral,decreased significantly
same,prevention of bone loss in proximal tibiae,OVX rats [3]; PPTN at 0.733 μg/kg/day oral,failed to do so
same,proximal tibial trabecular bone volume,OVX rats [3]; PPTN at 0.733 μg/kg/day oral,no significant effect
same,osteoclast number per millimeter of bone surface compared with both sham and OVX controls,OVX rats [3]; [7],significantly decreased
same,percent osteoclast surface compared with both sham and OVX controls,OVX rats [3]; [7],significantly decreased
same,bone turnover rate in proximal tibial trabecular bone,OVX rats [3]; PPTN at doses of 7.33 to 733 μg/kg/day oral,did not differ from sham controls
same,proximal tibial trabecular bone volume compared with OVX controls,OVX rats [3]; [6],significantly greater
same,inhibition of cell proliferation,MDA-MB-231 cells,did not inhibit cell proliferation
same,ED50 in preserving lumbar vertebral cancellous bone mass and structure,"OVX rats [4]; OVX rats, oral, lumbar vertebrae",less than 0.733 μg/kg/day
same,bone loss in lumbar vertebrae,OVX rats [4]; PPTN at 0.733 μg/kg/day oral,completely prevented bone loss
same,trabecular number of fifth lumbar vertebral body compared with sham controls,OVX rats [4]; PPTN at 73.3 or 733 μg/kg/day oral,significantly increased
same,"bone turnover rate, lumbar vertebral body","OVX rats [4]; PPTN at all dose levels, oral",did not differ from sham controls
same,ovariectomy-induced increase in bone formation rate (BFR),"OVX rats [4]; PPTN at all dose levels, oral",inhibited this increase
same,percent eroded surface (index of osteoclastic bone resorption) compared with sham controls,"OVX rats [4]; PPTN at all dose levels, oral",significantly decreased
same,"ovariectomy-induced changes in trabecular bone volume, trabecular number and trabecular separation of fifth lumbar vertebral body",OVX rats [4]; all doses of PPTN (0.733 to 733 μg/kg/day oral),completely prevented
same,BMD of distal femoral metaphyses and proximal femur,OVX rats [5]; PPTN at 0.733 or 7.33 μg/kg/day oral,did not differ from OVX controls
same,decreases in BMD of distal femoral metaphyses and proximal femur,OVX rats [5]; PPTN at both 73.3 and 733 μg/kg/day oral,completely prevented the decreases
